Measured values from US20210300900A1, “OGA INHIBITOR COMPOUNDS” (Janssen Pharmaceutica NV, priority 2018, published 2021).

Biological target: T1, recombinant human Meningioma Expressed Antigen 5 (MGEA5), also referred to as O-GcNAcase (OGA) (Homo sapiens, UniProt O60502)
T1 construct: Full length OGA enzyme was purchased at OnGene (cat #TP322411); purchased OnGene (so in the source)
T1 sequence (O60502 1-916): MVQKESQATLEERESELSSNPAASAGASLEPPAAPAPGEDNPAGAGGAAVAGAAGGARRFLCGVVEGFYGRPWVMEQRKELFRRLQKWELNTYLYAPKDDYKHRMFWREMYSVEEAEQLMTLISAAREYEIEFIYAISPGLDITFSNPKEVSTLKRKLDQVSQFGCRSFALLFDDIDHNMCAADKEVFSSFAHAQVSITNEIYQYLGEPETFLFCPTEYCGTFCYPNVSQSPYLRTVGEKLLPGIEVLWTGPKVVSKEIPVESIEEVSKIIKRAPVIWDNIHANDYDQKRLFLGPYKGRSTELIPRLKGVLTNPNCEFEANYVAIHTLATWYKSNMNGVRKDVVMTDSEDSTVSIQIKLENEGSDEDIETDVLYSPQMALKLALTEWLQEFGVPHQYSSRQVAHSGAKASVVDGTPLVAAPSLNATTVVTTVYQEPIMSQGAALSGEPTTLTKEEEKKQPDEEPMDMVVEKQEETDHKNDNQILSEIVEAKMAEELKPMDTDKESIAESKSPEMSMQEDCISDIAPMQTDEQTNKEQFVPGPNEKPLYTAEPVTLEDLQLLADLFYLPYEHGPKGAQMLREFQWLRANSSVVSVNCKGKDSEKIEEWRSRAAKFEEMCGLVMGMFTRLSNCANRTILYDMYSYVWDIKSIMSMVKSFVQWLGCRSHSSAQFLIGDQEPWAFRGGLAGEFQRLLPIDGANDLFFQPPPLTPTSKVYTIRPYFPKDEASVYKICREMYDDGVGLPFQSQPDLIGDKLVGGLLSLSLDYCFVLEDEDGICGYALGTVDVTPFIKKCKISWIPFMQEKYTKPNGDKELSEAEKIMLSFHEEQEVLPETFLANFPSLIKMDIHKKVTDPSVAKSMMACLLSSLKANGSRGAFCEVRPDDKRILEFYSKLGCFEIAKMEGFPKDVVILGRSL
Test: OGA biochemical assay (inhibition of FM-GlcNAc hydrolysis, fluorescence)
Conditions: FM-GlcNAc substrate; for Emax: read-out: Enzymatic Emax (%); for IC50: read-out: Enzymatic hOGA, pIC50 (converted)
From the text: The assay is based on the inhibition of the hydrolysis of fluorescein mono-β-D-N-Acetyl-Glucosamine (FM-GlcNAc) (Mariappa et al. 2015, Biochem J 470:255) by the recombinant human Meningioma Expressed Antigen 5 (MGEA5), also referred to as O-GcNAcase (OGA). The hydrolysis FM-GlcNAc (Marker Gene technologies, cat #M1485) results in the formation of B-D-N-glucosamineacetate and fluorescein. The fluorescence of the latter can be measured at excitation wavelength 485 nm and emission wavelength 538 nm. An increase in enzyme activity results in an increase in fluorescence signal. Full length OGA enzyme was purchased at OnGene (cat #TP322411). The enzyme was stored in 25 mM Tris.HCl, pH 7.3, 100 mM glycine, 10% glycerol at −20° C. Thiamet G and GlcNAcStatin were tested as reference compounds (Yuzwa et al. 2008 Nature Chemical Biology 4:483; Yuzwa et al. 2012 Nature Chemical Biology 8:393). The assay was performed in 200 mM Citrate/phosphate buffer supplemented with 0.005% Tween-20. 35.6 g Na2HPO4 2H2O (Sigma, #C0759) were dissolved in 1 L water to obtain a 200 mM solution. 19.2 g citric acid (Merck, #1.06580) was dissolved in 1 L water to obtain a 100 mM solution. pH of the sodiumphosphate solution was adjusted with the citric acid solution to 7.2. The buffer to stop the reaction consists of a 500 mM Carbonate buffer, pH 11.0. 734 mg FM-GlcNAc were dissolved in 5.48 mL DMSO to obtain a 250 mM solution and was stored at −20° C. OGA was used at a 2 nM concentration and FM-GlcNAc at a 100 uM final concentration. Dilutions were prepared in assay buffer.
50 nl of a compound dissolved in DMSO was dispensed on Black Proxiplate TM 384 Plus Assay plates (Perkin Elmer, #6008269) and 3 μl fl-OGA enzyme mix added subsequently. Plates were pre-incubated for 60 min at room temperature and then 2 μl FM-GlcNAc substrate mix added. […] Plates were briefly centrifuged for 1 min at 1000 rpm and incubate at room temperature for 6 h. To stop the reaction 5 μl STOP buffer were added and plates centrifuge again 1 min at 1000 rpm. Fluorescence was quantified in the Thermo Scientific Fluoroskan Ascent or the PerkinElmer EnVision with excitation wavelength 485 nm and emission wavelength 538 nm.
For analysis a best-fit curve is fitted by a minimum sum of squares method. From this an IC50 value and Hill coefficient was obtained. High control (no inhibitor) and low control (saturating concentrations of standard inhibitor) were used to define the minimum and maximum values.

CCOc1cc(C(C)N2CCC[C@H](Cc3cc(C)nc(C)c3)C2)n(C)n1 (mixture of isomers) [Product 17]
Emax: 96%
IC50: 0.245 µM

CCOc1cc(C(C)N2CCC[C@H](Cc3cc(C)nc(C)c3)C2)nn1C (mixture of isomers) [Product 18]
Emax: 95%
IC50: 0.575 µM

CCOc1nc(C(C)N2CCC[C@H](Cc3cc(C)nc(C)c3)C2)cn1C (mixture of isomers) [Product 24]
Emax: 84%
IC50: 2 µM

COc1cc(C(C)N2CCC[C@H](Cc3cc(C)nc(C)c3)C2)on1 (mixture of isomers) [Product 29]
Emax: 86%
IC50: 1.26 µM

CC(=O)Nc1cc(C(C)N2CCC[C@H](Cc3cc(C)nc(C)c3)C2)cnc1C (mixture of isomers) [Product 33]
Emax: 99%
IC50: 0.234 µM

COc1ncc(C(C)N2CCC[C@H](Cc3cc(C)nc(C)c3)C2)cc1F (mixture of isomers) [Product 45]
Emax: 92%
IC50: 0.955 µM

CCOc1cccc(C(C)N2CCC[C@H](Cc3cc(C)nc(C)c3)C2)n1 (mixture of isomers) [Product 49]
Emax: 98%
IC50: 0.219 µM

COc1ccc(C(C)N2CCC[C@H](Cc3cc(C)nc(C)c3)C2)cn1 (mixture of isomers) [Product 52]
Emax: 98%
IC50: 0.229 µM

COc1cc(C(C)N2CCC[C@H](Cc3cc(C)nc(C)c3)C2)ccn1 (mixture of isomers) [Product 53]
Emax: 99%
IC50: 0.282 µM

Cc1cc(C[C@H]2CCCN(C(C)c3cccc(C(F)(F)F)n3)C2)cc(C)n1 (mixture of isomers) [Product 61]
Emax: 84%
IC50: 2.29 µM

COc1ncc(C(C)N2CCC[C@H](Cc3cc(C)nc(C)c3)C2)cn1 (mixture of isomers) [Product 65]
Emax: 93%
IC50: 0.933 µM

COc1cccc(C(C)N2CCC[C@H](Cc3cc(OC)nc(C(F)(F)F)c3)C2)n1 (mixture of isomers) [Product 78]
Emax: 101%
IC50: 0.355 µM

COc1ccc(F)c(C(C)N2CC[C@@H](Cc3cc(C)nc(C)c3)C2)n1 (mixture of isomers) [Product 98]
Emax: 92%
IC50: 1.12 µM

COc1cc(C(C)N2CC[C@@H](Cc3cc(C)nc(C)c3)C2)c(F)cn1 (mixture of isomers) [Product 99]
Emax: 91%
IC50: 0.646 µM

CNC(=O)c1cc(C(C)N2CC[C@H](Cc3cc(C)nc(OC)c3)C2)n[nH]1 (mixture of isomers) [Product 101]
Emax: 75%
IC50: 3.16 µM

COc1cc(C(C)N2CC[C@@H](Cc3cc(C)nc(OC)c3)C2)c(F)cn1 (mixture of isomers) [Product 102]
Emax: 85%
IC50: 1.7 µM

CNC(=O)c1cncc(C(C)N2CC[C@H](Cc3cc(C)nc(OC)c3)C2)c1 (mixture of isomers) [Product 103]
Emax: 85%
IC50: 1.66 µM

CC(=O)Nc1cc(C(C)N2CC[C@H](Oc3cc(C)nc(C)c3)C2)n[nH]1 (mixture of isomers) [Product 116]
Emax: 57%
IC50: 8.32 µM

CCOc1cc(C(C)N2CC[C@H](Cc3cc(C)nc(C(F)(F)F)c3)C2)n[nH]1 (mixture of isomers) [Product 120]
Emax: 75%
IC50: 4.17 µM

COc1cccc(C(C)N2CC[C@H](Cc3cc(C)nc(C(F)(F)F)c3)C2)n1 (mixture of isomers) [Product 121]
Emax: 96%
IC50: 0.741 µM

COc1cccc(C(C)N2CC[C@H](Cc3cc(OC)nc(C(F)(F)F)c3)C2)n1 (mixture of isomers) [Product 123]
Emax: 86%
IC50: 2.82 µM

COc1cc(C[C@H]2CCN(C(C)c3cccc(OC)n3)C2)ccn1 (mixture of isomers) [Product 124]
Emax: 51%
IC50: 8.71 µM

CCOc1cc(C[C@H]2CCN(C(C)c3cccc(OC)n3)C2)ccn1 (mixture of isomers) [Product 125]
Emax: 76%
IC50: 4.17 µM

COc1cccc(C(C)N2CC[C@H](Cc3ccnc(OC(C)C)c3)C2)n1 (mixture of isomers) [Product 126]
Emax: 56%
IC50: 9.55 µM

COc1cccc(C(C)N2CC[C@H](Cc3ccnc(C(F)(F)F)c3)C2)n1 (mixture of isomers) [Product 127]
Emax: 60%
IC50: 7.24 µM

COc1cc(C[C@H]2CCN(C(C)c3cc(NC(C)=O)[nH]n3)C2)cc(C)n1 (mixture of isomers) [Product 128]
Emax: 94%
IC50: 0.575 µM

COc1cc(C[C@H]2CCN(C(C)c3cccc(OC)n3)C2)cc(C)n1 (mixture of isomers) [Product 129]
Emax: 75%
IC50: 4.37 µM

COc1cc(C[C@@H]2CCN(C(C)c3cc(NC(C)=O)[nH]n3)C2)cc(C)n1 (mixture of isomers) [Product 131]
Emax: 97%
IC50: 0.38 µM

COCc1cc(C(C)N2CC[C@@H](Cc3cc(C)nc(OC)c3)C2)nn1C (mixture of isomers) [Product 132]
Emax: 59%
IC50: 7.76 µM

CCOc1cnc(C(C)N2CC[C@@H](Cc3cc(C)nc(OC)c3)C2)o1 (mixture of isomers) [Product 133]
Emax: 98%
IC50: 0.759 µM

CCOc1cc(C(C)N2CC[C@H](Cc3cc(C)nc(C)c3)C2)n[nH]1 (mixture of isomers) [Product 139]
Emax: 73.3%
IC50: 3.98 µM

COc1cccc(C(C)N2CC[C@H](Cc3cccnc3OC)C2)n1 (mixture of isomers) [Product 140]
Emax: 29.3%
IC50: > 10 µM

COc1cccc(C(C)N2CC[C@H](Cc3cncc(C(F)(F)F)c3)C2)n1 (mixture of isomers) [Product 141]
Emax: 35.6%
IC50: > 10 µM

COc1cccc(C(C)N2CC[C@H](Cc3ccc(C(F)(F)F)nc3)C2)n1 (mixture of isomers) [Product 142]
Emax: 30.5%
IC50: > 10 µM

COc1cncc(C[C@H]2CCN(C(C)c3cccc(OC)n3)C2)c1 (mixture of isomers) [Product 143]
Emax: 38%
IC50: > 10 µM

COc1cccc(C(C)N2CC[C@H](Cc3cncc(F)c3)C2)n1 (mixture of isomers) [Product 144]
Emax: 43.4%
IC50: > 10 µM

COc1cccc(C(C)N2CC[C@H](Cc3cccnc3C(F)(F)F)C2)n1 (mixture of isomers) [Product 145]
Emax: 44.3%
IC50: > 10 µM

COc1cccc(C(C)N2CC[C@H](Cc3ccncc3F)C2)n1 (mixture of isomers) [Product 146]
Emax: 33.1%
IC50: > 10 µM

COc1cccc(C(C)N2CC[C@H](Cc3cccc(C(F)(F)F)n3)C2)n1 (mixture of isomers) [Product 147]
Emax: 14.4%
IC50: > 10 µM

COc1cccc(C(C)N2CC[C@H](Cc3ncccc3F)C2)n1 (mixture of isomers) [Product 148]
Emax: 11.3%
IC50: > 10 µM
